Where a name gives a salt, the structure may show the parent alone.
Assays:
[1] = biological target: T1, human XIAP_BIR3 domain purified protein (Homo sapiens, UniProt P98170); experiment: XIAP binding inhibitory activity (HTRF, b-Smac ligand); details: second symbol of cell; read-out: XIAP binding inhibition IC50 value
T1 construct: purchased R & D
Procedure, shortened: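 HTRF competition between compound and C-terminally biotinylated Smac peptide AVPIAQK for His-tagged XIAP BIR3, both diluted to 90 nM before addition, in pH 7.5 HEPES/NaCl/BSA/Triton buffer. Eu-cryptate anti-His and streptavidin-XL665 added, ≥4 h at room temperature in the dark; inhibition % from 665/615 nm ratio versus no-compound wells.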

IRAK-M [2] = biological target: T2, IRAK-M (Homo sapiens, UniProt Q9Y616); experiment: In vitro degradation activity of target protein (IRAK-M ELISA in THP1 cells); format: cell-based; parameters: host or cells: THP1 cells; details: 24 hours, second symbol of cell, read-out: IRAK-M 50% degradation concentration (DC50 value)
T2 sequence (Q9Y616 1-596): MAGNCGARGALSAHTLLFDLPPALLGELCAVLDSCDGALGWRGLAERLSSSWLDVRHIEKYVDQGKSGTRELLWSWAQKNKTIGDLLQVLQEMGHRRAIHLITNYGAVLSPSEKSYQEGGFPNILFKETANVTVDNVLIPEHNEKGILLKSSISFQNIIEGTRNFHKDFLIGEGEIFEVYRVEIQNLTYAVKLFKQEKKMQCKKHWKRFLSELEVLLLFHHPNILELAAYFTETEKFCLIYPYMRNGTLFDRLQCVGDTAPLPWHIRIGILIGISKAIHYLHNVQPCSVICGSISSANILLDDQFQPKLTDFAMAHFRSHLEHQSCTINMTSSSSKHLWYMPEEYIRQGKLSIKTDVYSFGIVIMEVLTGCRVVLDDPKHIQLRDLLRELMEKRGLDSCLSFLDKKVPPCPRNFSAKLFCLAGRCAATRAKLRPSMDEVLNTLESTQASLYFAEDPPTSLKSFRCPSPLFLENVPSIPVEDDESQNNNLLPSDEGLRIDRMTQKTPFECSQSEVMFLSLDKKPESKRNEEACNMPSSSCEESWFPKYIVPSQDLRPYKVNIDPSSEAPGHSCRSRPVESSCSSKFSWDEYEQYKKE
Experimental: In vitro degradation activities of target protein of the example compounds were evaluated using Enzyme-linked immuno-sorbent assay (ELISA) by the following assay steps. THP1 cells (ATCC, TIB-202) were cultured in RPMI-1640 supplemented with 10% FBS, lx sodium pyruvate, lx HEPES, D-(+)-glucose and 1% penicillin/streptomycin. THP1 cells were seeded at a density of 1×10^6 cells/well in 24-well plate and treated with DMSO control or test compound, and then incubated for 24 hours. The cells were collected and lysed on ice for 30 minutes in lysis buffer (PBS containing 0.1% Triton X-100) containing a protease inhibitor cocktail (Roche, Cat #11836170001). The lysates were sonicated for 30 sec ON/30 sec OFF for ten cycles and centrifuged for 10 minutes at 13k rpm at 4° C. Protein concentrations were determined by the BCA assay (Sigma, Cat #QPBCA-1KT). The ELISA assay was performed using the Human IRAK3/IRAKM/IRAK-M ELISA Kit (LifeSpan BioSciences, Cat #LS-F35271), and the protein levels of IRAK-M were evaluated according to the kit protocol. As to the IRAK-M degradation rate of test compounds, protein degradation rate (%) when the concentration of the test compound is […] described as A≥75%, 50%≤B<75%, 25%≤C<50%, D<25%, or 50% degradation concentration (DC50 value) described as A<0.03 μM, 0.03 μM≤B<0.1 μM, 0.1 μM≤C<0.3 μM, 0.3 μM≤D<1 μM, is shown in the table below.

IRAK-M [3] = biological target: T2, IRAK-M; experiment: IRAK-M binding inhibitory activity (KINOMEscan active site-dependent competitive assay); parameters: purchased Eurofins Discover X; details: for IC50: second symbol of cell, read-out: IRAK-M binding inhibition IC50 value; for remaining binding at 1 µM: concentration of the test compound 1 μM, first symbol of cell, read-out: IRAK-M binding inhibition activity % Ctrl
Procedure, shortened: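 Readout given as % Ctrl, with DMSO as 100% and a control compound as 0%, scaling the test compound signal between them. Binding to human IRAK-M was assessed by KINOMEscan competition at the kinase active site.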

T1 sequence (P98170 252-356 limits assumed): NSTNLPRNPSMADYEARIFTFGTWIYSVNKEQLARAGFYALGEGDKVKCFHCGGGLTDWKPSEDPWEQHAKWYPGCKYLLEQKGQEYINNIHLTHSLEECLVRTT

Structure (SMILES): CN[C@@H](C)C(=O)N[C@H](C(=O)N1CCN(C(=O)c2c(C(=O)N(C)CCOCCOCCOc3cc(CN4CCC(Oc5ccnc6ccsc56)CC4)on3)c3cc(F)c(F)cc3n2C)CC1)C1CCCCC1 [Example 1, 2-(4-((S)-2-Cyclohexyl-2-((S)-2-(methylamino)propanamido)acetyl)piperazine-1-carbonyl)-5,6-difluoro-N,1-dimethyl-N-(2-(2-(2-((5-((4-(thieno[3,2-b]pyridin-7-yloxy)piperidin-1-yl)methyl)isoxazol-3-yl)oxy)ethoxy)ethoxy)ethyl)-1H-indole-3-carboxamide hydrochloride]
- IC50 [1]: 300 to 3000 nM
- DC50 (IRAK-M [2]): 300 to 1000 nM
- IC50 (IRAK-M [3]): 300 to 1000 nM

Structure (SMILES): CN[C@@H](C)C(=O)N[C@H](C(=O)N1CCN(C(=O)c2c(C(=O)NCCOCCOCCOc3cc(CN4CCC(Oc5ccnc6ccsc56)CC4)on3)c3cc(F)c(F)cc3n2C)[C@@H](C)C1)C1CCCCC1 [Example 12, 2-((S)-4-((S)-2-cyclohexyl-2-((S)-2-(methylamino)propanamido)acetyl)-2-methylpiperazine-1-carbonyl)-5,6-difluoro-1-methyl-N-(2-(2-(2-((5-((4-(thieno[3,2-b]pyridin-7-yloxy)piperidin-1-yl)methyl)isoxazol-3-yl)oxy)ethoxy)ethoxy)ethyl)-1H-indole-3-carboxamide]
- IC50 [1]: 300 to 3000 nM
- DC50 (IRAK-M [2]): 100 to 300 nM
- remaining binding at 1 µM (IRAK-M [3]): < 25%

Structure (SMILES): CN[C@@H](C)C(=O)N[C@H](C(=O)N1CCN(C(=O)c2cc3cc(F)c(F)cc3n2CC(=O)N(C)CCOCCOCCOCCOc2cc(CN3CCC(Oc4ccnc5ccsc45)CC3)on2)CC1)C1CCCCC1 [Example 24, (S)-N-((S)-1-Cyclohexyl-2-(4-(5,6-difluoro-1-(3-methyl-2-oxo-14-((5-((4-(thieno[3,2-b]pyridin-7-yloxy)piperidin-1-yl)methyl)isoxazol-3-yl)oxy)-6,9,12-trioxa-3-azatetradecyl)-1H-indole-2-carbonyl)piperazin-1-yl)-2-oxoethyl)-2-(methylamino)propanamide hydrochloride]
- IC50 [1]: 3000 to 30000 nM
- DC50 (IRAK-M [2]): 300 to 1000 nM
- remaining binding at 1 µM (IRAK-M [3]): < 25%

Structure (SMILES): CN[C@@H](C)C(=O)N[C@H](C(=O)N1CCN(C(=O)c2cc3cc(F)c(F)cc3n2CC(=O)N2CCC[C@H]2COc2cc(CN3CCC(Oc4ccnc5ccsc45)CC3)on2)CC1)C1CCCCC1 [Example 25, (S)-N-((S)-1-Cyclohexyl-2-(4-(5,6-difluoro-1-(2-oxo-2-((S)-2-(((5-((4-(thieno[3,2-b]pyridin-7-yloxy)piperidin-1-yl)methyl)isoxazol-3-yl)oxy)methyl)pyrrolidin-1-yl)ethyl)-1H-indole-2-carbonyl)piperazin-1-yl)-2-oxoethyl)-2-(methylamino)propanamide hydrochloride]
- IC50 [1]: 3000 to 30000 nM
- DC50 (IRAK-M [2]): 30 to 100 nM
- remaining binding at 1 µM (IRAK-M [3]): < 25%

Structure (SMILES): CN[C@@H](C)C(=O)N[C@H](C(=O)N1CCN(C(=O)c2cc3cc(F)ccc3n2CC(=O)N2CCC[C@H]2COc2cc(CN3CCC(Oc4ccnc5ccsc45)CC3)on2)CC1)C1CCCCC1 [Example 26, (S)-N-((S)-1-Cyclohexyl-2-(4-(5-fluoro-1-(2-oxo-2-((S)-2-(((5-((4-(thieno[3,2-b]pyridin-7-yloxy)piperidin-1-yl)methyl)isoxazol-3-yl)oxy)methyl)pyrrolidin-1-yl)ethyl)-1H-indole-2-carbonyl)piperazin-1-yl)-2-oxoethyl)-2-(methylamino)propanamide]
- IC50 [1]: 3000 to 30000 nM
- DC50 (IRAK-M [2]): < 30 nM
- IC50 (IRAK-M [3]): 300 to 1000 nM

Structure (SMILES): CN[C@@H](C)C(=O)N[C@H](C(=O)N1CCN(C(=O)c2cc3cc(F)c(F)cc3n2CC(=O)N2CCC[C@H]2COc2cc(CN3CCC(Oc4ccnc5ccsc45)CC3)on2)[C@@H](C)C1)C1CCCCC1 [Example 27, (S)-N-((S)-1-Cyclohexyl-2-((S)-4-(5,6-difluoro-1-(2-oxo-2-((S)-2-(((5-((4-(thieno[3,2-b]pyridin-7-yloxy)piperidin-1-yl)methyl)isoxazol-3-yl)oxy)methyl)pyrrolidin-1-yl)ethyl)-1H-indole-2-carbonyl)-3-methylpiperazin-1-yl)-2-oxoethyl)-2-(methylamino)propanamide]
- IC50 [1]: 3000 to 30000 nM
- DC50 (IRAK-M [2]): < 30 nM
- IC50 (IRAK-M [3]): 300 to 1000 nM

Structure (SMILES): CN[C@@H](C)C(=O)N[C@H](C(=O)N1CCN(C(=O)c2cc3cc(F)c(F)cc3n2CC(=O)N2CCC[C@H]2COc2cc(CN3CCC(Oc4ccnc5ccsc45)CC3)on2)CC1)C1CCC(F)(F)CC1 [Example 48, (S)-N-((S)-2-(4-(5,6-difluoro-1-(2-oxo-2-((S)-2-(((5-((4-(thieno[3,2-b]pyridin-7-yloxy)piperidin-1-yl)methyl)isoxazol-3-yl)oxy)methyl)pyrrolidin-1-yl)ethyl)-1H-indole-2-carbonyl)piperazin-1-yl)-1-(4,4-difluorocyclohexyl)-2-oxoethyl)-2-(methylamino)propanamide]
- IC50 [1]: 3000 to 30000 nM
- DC50 (IRAK-M [2]): 100 to 300 nM

Structure (SMILES): CN[C@@H](C)C(=O)N[C@H](C(=O)N1CCN(C(=O)c2cc3cc(F)c(F)cc3n2CC(=O)N2CCC[C@H]2COc2cc(CN3CCC(Oc4ccnc5ccsc45)CC3)on2)[C@@H](C)C1)C1CCC(F)(F)CC1 [Example 49, (S)-N-((S)-2-((S)-4-(5,6-difluoro-1-(2-oxo-2-((S)-2-(((5-((4-(thieno[3,2-b]pyridin-7-yloxy)piperidin-1-yl)methyl)isoxazol-3-yl)oxy)methyl)pyrrolidin-1-yl)ethyl)-1H-indole-2-carbonyl)-3-methylpiperazin-1-yl)-1-(4,4-difluorocyclohexyl)-2-oxoethyl)-2-(methylamino)propanamide]
- IC50 [1]: 3000 to 30000 nM
- DC50 (IRAK-M [2]): 30 to 100 nM

Structure (SMILES): CN[C@@H](C)C(=O)N[C@H](C(=O)N1CCN(C(=O)c2ccc3c(c2)c(F)c(C)n3CCOCCOCCOc2cc(CN3CCC(Oc4ccnc5ccsc45)CC3)on2)CC1)C1CCCCC1 [Example 57, (S)-N-((S)-1-cyclohexyl-2-(4-(3-fluoro-2-methyl-1-(2-(2-(2-((5-((4-(thieno[3,2-b]pyridin-7-yloxy)piperidin-1-yl)methyl)isoxazol-3-yl)oxy)ethoxy)ethoxy)ethyl)-1H-indole-5-carbonyl)piperazin-1-yl)-2-oxoethyl)-2-(methylamino)propanamide]
- IC50 [1]: 300 to 3000 nM
- remaining binding at 1 µM (IRAK-M [3]): 25 to 50%

Structure (SMILES): CN[C@@H](C)C(=O)N[C@H](C(=O)N1CCC[C@H]1c1nc(C(=O)c2cccc(OCCOCCOc3cc(CN4CCC(Oc5ccnc6ccsc56)CC4)on3)c2)cs1)C1CCCCC1 [Example 58, (S)-N-((S)-1-cyclohexyl-2-oxo-2-((S)-2-(4-(3-(2-(2-((5-((4-(thieno[3,2-b]pyridin-7-yloxy)piperidin-1-yl)methyl)isoxazol-3-yl)oxy)ethoxy)ethoxy)benzoyl)thiazol-2-yl)pyrrolidin-1-yl)ethyl)-2-(methylamino)propanamide]
- IC50 [1]: < 300 nM
- remaining binding at 1 µM (IRAK-M [3]): < 25%

Structure (SMILES): CN[C@@H](C)C(=O)N[C@H](C(=O)N1CCC[C@H]1c1nc(C(=O)c2cccc(OCCOCCOCCOCCOc3cc(CN4CCC(Oc5ccnc6ccsc56)CC4)on3)c2)cs1)C1CCCCC1 [Example 60, (S)-N-((S)-1-cyclohexyl-2-oxo-2-((S)-2-(4-(3-(2-(2-(2-(2-((5-((4-(thieno[3,2-b]pyridin-7-yloxy)piperidin-1-yl)methyl)isoxazol-3-yl)oxy)ethoxy)ethoxy)ethoxy)ethoxy)benzoyl)thiazol-2-yl)pyrrolidin-1-yl)ethyl)-2-(methylamino)propanamide]
- IC50 [1]: < 300 nM
- remaining binding at 1 µM (IRAK-M [3]): < 25%
